Literature values as cited in patent US6743953B2, “Process for the preparation of xanthophyll crystals” (Kancor Flavours & Extracts Ltd., priority 2002, dated 2004).
Where two headings read alike, the source gives them in different places.

Assays:
[1] = not given; remark: listed apart in the source

Stability of Lutein in Solvent (solvent Acetone): Good | Stability of Lutein in Solvent (solvent Benzene): Good | Stability of Lutein in Solvent (solvent Chloroform): Good | Stability of Lutein in Solvent (solvent Cyclohexanone): Poor | Stability of Lutein in Solvent (solvent Dichloromethane): Good | Stability of Lutein in Solvent (solvent Ethyl Acetate): Good | Stability of Lutein in Solvent (solvent Hexane): Good | Stability of Lutein in Solvent (solvent Tetrahydrofuran): Good | Stability of Lutein in Solvent (solvent Toluene): Good | Solubility of Lutein in Solvent ([1]; solvent Acetone): 800 Mg/litre | Solubility of Lutein in Solvent ([1]; solvent Benzene): 600 Mg/litre | Solubility of Lutein in Solvent ([1]; solvent Chloroform): 6000 Mg/litre | Solubility of Lutein in Solvent ([1]; solvent Cyclohexanone): 4000 Mg/litre | Solubility of Lutein in Solvent ([1]; solvent Dichloromethane): 800 Mg/litre | Solubility of Lutein in Solvent ([1]; solvent Ethyl Acetate): 800 Mg/litre | Solubility of Lutein in Solvent ([1]; solvent Hexane): 20 Mg/litre | Solubility of Lutein in Solvent ([1]; solvent Tetrahydrofuran): 8000 Mg/litre | Solubility of Lutein in Solvent ([1]; solvent Toluene): 400 Mg/litre
SMILES: CC1=C[C@H](O)CC(C)(C)[C@H]1/C=C/C(C)=C/C=C/C(C)=C/C=C/C=C(C)/C=C/C=C(C)/C=C/C1=C(C)C[C@@H](O)CC1(C)C [Lutein, (3R,3′R,6′R)-β,ε-carotene-3,3′-diol]
